In patent publication US4562190A, “Benzothiazolone derivatives, processes for preparation thereof and pharmaceutical compositions comprising the same” (Fujisawa Pharmaceutical Co., Ltd., priority 1983, dated 1985):
Like-named read-outs stand apart in the source and are kept apart here. Blank lines part the entries; values can stand above or below the compound they belong to.

Experiments:
blood pressure = assay: Antihypertensive activity (DOCA-treated, uninephrectomized rats, oral); assay type: in vivo, male Wistar rats; conditions: dose 1.0 mg/kg, DOCA/saline uninephrectomized rats, mean blood pressure 150-200 mmHg
Experimental: Five-week old male Wistar rats were uninephrectomized under anesthesia. Deoxycorticosterone acetate (DOCA) (30 mg/kg), suspended in peanut oil, was injected subcutaneously twice a week and 1% saline was substituted for the drinking water. Animals with mean blood pressure 150-200 mmHg were used for experiment between 5 and 7 weeks after surgery.
The test compound was administered orally. Blood pressure was measured at the femoral artery by means of a pressure transducer and recorded as electrically integrated values of mean arterial pressure.

[1] = test system: left ventricular pressure (dp/dt max) and heart rate; assay: Cardiotonic activity (anesthetized dogs, i.v.); assay type: in vivo, Mongrel dogs; conditions: dosage 1 mg/kg (printed "1."), injected into femoral vein; pentobarbital-anesthetized dogs; vs predosing period
Experimental: Mongrel dogs of either sex were anesthetized with sodium pentobarbital, 35 mg/kg, i.p.. The animals were allowed to breathe spontaneously. The left carotid artery was isolated and a catheter (USCI, #8F) filled with heparinized saline was inserted and advanced into the left ventricle. The catheter was connected to a pressure transducer (Nihonkohden, MPU-0.5A) to measure the left ventricular pressure, from which dp/dt max was derived by analog computing. To measure the systemic blood pressure the left femoral artery was cannulated. The blood pressure pulses was used to trigger a heart rate meter. Another catheter was positioned in the vena cave through right femoral vein for injection of drug. Systemic blood pressure, left ventricular pressure, dp/dt max and heart rate were recorded simultaneously on a polygram (Nihonkohden, RJG-4008).
Test compound was dissolved in dimethyl sulfoxide (0.04 ml/kg) and injected into the femoral vein. The parameters after dosing were compared with those during the predosing period.
Test results were represented in terms of percentage of dp/dt max changes (dp/dt M.C.) and percentage of heart rate changes (H.R.C.) calculated by following formulae. [formula]

platelet aggregation = assay: Inhibitory activity on platelet aggregation; assay type: cell-based; conditions: Oryctolagus cuniculus, rabbit platelet rich plasma, 37° C.
Experimental: Platelet rich plasma (PRP) which contains 6.5-7.5×10^8 platelet/ml was prepared from rabbit blood. To the 200 μl of PRP, 5 μl of calcium chloride (1mM) and 50 μl of pH 7.4 Tris-acetate solution (5 mM) containing 120mM NaCl and test compound was added successively, and then stirred for 2 min. at 37° C. To the solution 5 μl of adenosine diphosphate (ADP) (2.5 μM) or collagen (2.5 μg/ml) was added as an aggregation inducer. Aggregation was measured by using an aggregometer (NKK HEMA TRACER 1).

Structure (SMILES): CC1CC(=O)NN=C1c1ccc2sc(=O)n(C)c2c1 (centres unmarked) [test compound .circle.1, 3-Methyl-5-(4-methyl-6-oxo-1,4,5,6-tetrahydro-3-pyridazinyl)benzothiazolone]
- Effect Max (mean ratio of maximum decrease of blood pressure) (blood pressure): 63%

Structure (SMILES): CCOC(=O)Cn1c(=O)sc2ccc(C3=NNC(=O)CC3C)cc21 (centres unmarked) [test compound .circle.2, 3-Ethoxycarbonylmethyl-5-(4-methyl-6-oxo-1,4,5,6-tetrahydro-3-pyridazinyl)benzothiazolone]
- H.R.C. (percentage of heart rate changes) [1]: 22%
- dp/dt M.C. (percentage of dp/dt max changes) [1]: 63%

- IC50 (platelet aggregation; inducer ADP (2.5 μM), read-out: ID50, ADP): 61 nM
- IC50 (platelet aggregation; inducer collagen (2.5 μg/ml), read-out: ID50, Collagen): 35 nM
Structure (SMILES): CC1CC(=O)NN=C1c1ccc2sc(=O)[nH]c2c1 (centres unmarked) [test compound .circle.3, 5-(4-Methyl-6-oxo-1,4,5,6-tetrahydro-3-pyridazinyl)benzothiazolone]
